# Assay results from US7351744B2, “Naphthalene derivatives as termite repellents and toxicants” (Board of Supervisors of Louisiana State University and …, priority 2003, dated 2008).
# Legend:
# [1] = tested on: C. formosanus workers and soldiers; assay: Topical application toxicity assay; format: in vivo, Coptotermes formosanus
# Procedure: Dose-mortality data were analyzed using probit analysis as adapted for PC use (POLO-PC), which automatically corrected for control mortality using Abbott's transformation. See, e.g., R. M Russell et al., “POLO: a new computer program for probit analysis,” Bull. Entomol. Soc. Am., vol. 23, pp. 209-213 (1977); and LeOra Software, “POLO-PC, a user's guide to probit analysis or logit analysis” (1987). The LD50s of workers and soldiers from four tested colonies (y) were plotted against the average weight of tested termites (x) to establish a linear regression equation and conduct correlation analyses. Mean survival, food consumption and tunnel areas were compared among treatments using analysis of variance (ANOVA), followed by least significant difference procedures. See, SAS Institute, SAS/STAT User's Guide: version 8, SAS Institute, Inc., Cary, N.C. (1999). In two-choice assays using either treated filter paper or treated sand, the parameters measured in the two lateral sides of each treatment were compared using paired t-tests. All data were judged at α=0.05.
# Acute toxicity of 2′-acetonaphthone was bioassayed using doses that ranged from 1.25 to 20 ug/termite. At stock solution of 2′-acetonaphthone was prepared ([…]). Dilutions were made by taking aliquots from the stock solution (62.5, 125, 250, 375, 500, 750, and 1000 μl), and adjusting each volume to 2 ml with acetone. A group of 20 workers or soldiers (from colonies BS, WB, E and CR) were placed in a Petri dish (6 cm×1.5 cm) and chilled on top of an ice brick (30.32 cm×17.78 cm×3.81 cm; IceBerg, Mid-Lands Chemical Company, Inc., Miami, Fla.) to slow their movement. Each termite was treated with a topical dose in 0.2 μl acetone to the dorsum of the mesothorax using a Hamilton PB 600 Repeating Dispenser equipped with a 10 μl syringe (Hamilton, Reno, Nev.). The experimental termites were treated with doses equivalent to 1.25, 2.50, 5.0, 7.5, 10.0, 15.0, and 20.0 μg/termite. Control termites were dosedwith only 0.2 μl acetone. Five replicates, each with 20 workers or 20 soldiers, were used for each dose and control. For each replicate, termites were maintained in a plastic container (5.5 cm×3.7 cm, Pioneer Pckaging Co., North Dixon, Ky.), each provided with a filter paper (Whatman #2, 55 mm diameter) wetted with 250 μl double distilled water (DDH20). The containers were covered with lids, and kept for 2 days at room temperature (26-28° C.). Daily mortality in each dish was recorded. Termites were considered dead if unable to right themselves when prodded with a fine paint brush.
# C. formosanus workers = assay: Repellency, choice of treated and untreated filter paper in three-chambered containers; format: in vivo, Coptotermes formosanus; conditions: preliminary study; 23 μg/cm^2
compound,measurement,setting,value
CC(=O)c1ccc2ccccc2c1 [2′-acetonaphthone],LD50 (95% CL),"[1]; colony BS, 24 hours, Soldier",3.24 (2.27-4.24) μg/termite
same,LD90 (95% CL),"[1]; colony BS, 24 hours, Soldier",13.60 (8.86-15.01) μg/termite
same,LD50 (95% CL),"[1]; colony BS, 24 hours, Worker",2.21 (1.91-2.49) μg/termite
same,LD90 (95% CL),"[1]; colony BS, 24 hours, Worker",7.11 (6.14-8.58) μg/termite
same,LD50 (95% CL),"[1]; colony BS, 48 hours, Soldier",2.02 (1.49-2.46) μg/termite
same,LD90 (95% CL),"[1]; colony BS, 48 hours, Soldier",4.07 (3.37-5.37) μg/termite
same,LD50 (95% CL),"[1]; colony BS, 48 hours, Worker",1.74 (1.49-1.96) μg/termite
same,LD90 (95% CL),"[1]; colony BS, 48 hours, Worker",4.19 (3.73-4.83) μg/termite
same,LD50 (95% CL),"[1]; colony CR, 24 hours, Soldier",3.49 (2.49-4.51) μg/termite
same,LD90 (95% CL),"[1]; colony CR, 24 hours, Soldier",8.09 (5.94-16.01) μg/termite
same,LD50 (95% CL),"[1]; colony CR, 24 hours, Worker",2.93 (2.24-3.59) μg/termite
same,LD90 (95% CL),"[1]; colony CR, 24 hours, Worker",7.23 (5.59-11.34) μg/termite
same,LD50 (95% CL),"[1]; colony CR, 48 hours, Soldier",2.02 (1.48-2.48) μg/termite
same,LD90 (95% CL),"[1]; colony CR, 48 hours, Soldier",4.26 (3.45-5.92) μg/termite
same,LD50 (95% CL),"[1]; colony CR, 48 hours, Worker",2.67 (1.87-3.35) μg/termite
same,LD90 (95% CL),"[1]; colony CR, 48 hours, Worker",6.09 (4.85-8.82) μg/termite
same,LD50 (95% CL),"[1]; colony E, 24 hours, Soldier",5.12 (3.99-7.24) μg/termite
same,LD90 (95% CL),"[1]; colony E, 24 hours, Soldier",14.06 (9.51-19.26) μg/termite
same,LD50 (95% CL),"[1]; colony E, 24 hours, Worker",7.24 (5.22-9.36) μg/termite
same,LD90 (95% CL),"[1]; colony E, 24 hours, Worker",19.69 (14.02-25.58) μg/termite
same,LD50 (95% CL),"[1]; colony E, 48 hours, Soldier",4.19 (3.14-6.20) μg/termite
same,LD90 (95% CL),"[1]; colony E, 48 hours, Soldier",12.32 (8.23-15.32) μg/termite
same,LD50 (95% CL),"[1]; colony E, 48 hours, Worker",3.82 (2.68-5.83) μg/termite
same,LD90 (95% CL),"[1]; colony E, 48 hours, Worker",11.77 (7.66-17.79) μg/termite
same,LD50 (95% CL),"[1]; colony WB, 24 hours, Soldier",2.16 (0.56-6.23) μg/termite
same,LD90 (95% CL),"[1]; colony WB, 24 hours, Soldier",5.48 (1.42-15.81) μg/termite
same,LD50 (95% CL),"[1]; colony WB, 24 hours, Worker",1.75 (0.76-2.76) μg/termite
same,LD90 (95% CL),"[1]; colony WB, 24 hours, Worker",6.33 (3.71-12.46) μg/termite
same,LD50 (95% CL),"[1]; colony WB, 48 hours, Soldier",2.17 (0.49-5.76) μg/termite
same,LD90 (95% CL),"[1]; colony WB, 48 hours, Soldier",5.59 (1.23-14.49) μg/termite
same,LD50 (95% CL),"[1]; colony WB, 48 hours, Worker",1.71 (0.42-1.95) μg/termite
same,LD90 (95% CL),"[1]; colony WB, 48 hours, Worker",3.09 (2.70-3.72) μg/termite
same,48 h-LD90,"[1]; soldiers, range over the four colonies",4.07-12.32 μg/soldier
same,feeding activity after 8 days exposure,C. formosanus workers,negligible
same,worker distribution,C. formosanus workers,workers avoided the treated side
